Measured values from ChEMBL document CHEMBL1136447, “Biological investigation and structure-activity relationship studies on azadirone from Azadirachta indica A. Juss” (2003).

Legend:
NCI-H522 [1] = assay: In vitro cytotoxicity against H522 (human adenocarcinoma) cell line at a concentration of 10e-5 M.
M14 [2] = assay: In vitro cytotoxic activity against Melanoma (M14) cell line at a concentration of 10e-5 M; format: functional, Homo sapiens
MCF7 [3] = assay: In vitro cytotoxic activity against breast (MCF-7/ADR) cell line at a concentration of 10e-5 M; format: functional, Homo sapiens
A498 [4] = assay: In vitro cytotoxic activity against renal (A498) cell line at a concentration of 10e-5 M; format: functional, Homo sapiens
SW-620 [5] = assay: In vitro cytotoxic activity against colon (SW620) cell line at a concentration of 10e-5 M; format: functional, Homo sapiens
SK-OV-3 [6] = assay: In vitro cytotoxic activity against Ovarian (SK-OV3) cell line at a concentration of 10e-5 M; format: functional, Homo sapiens
DU-145 [7] = assay: In vitro cytotoxic activity against prostate (DU145) cell line at a concentration of 10e-5 M; format: functional, Homo sapiens
U-251 [8] = assay: In vitro cytotoxic activity against CNS(U251) cell line at a concentration of 10e-5 M; format: functional, Homo sapiens
SW-620 [9] = assay: In vitro cytotoxic activity against colon (SW620) cell line; format: functional; conditions: Homo sapiens
M14 [10] = assay: In vitro cytotoxic activity against Melanoma (M14) cell line; format: functional; conditions: Homo sapiens
A498 [11] = assay: In vitro cytotoxic activity against renal (A498) cell line; format: functional; conditions: Homo sapiens
U-251 [12] = assay: In vitro cytotoxic activity against CNS(U251) cell line; format: functional; conditions: Homo sapiens
NCI-H522 [13] = assay: In vitro cytotoxic activity against lung (H522) cell line; conditions: Homo sapiens
MCF7 [14] = assay: In vitro cytotoxic activity against breast (MCF-7/ADR) cell line; format: functional; conditions: Homo sapiens
SK-OV-3 [15] = assay: In vitro cytotoxic activity against Ovarian (SK-OV3) cell line; format: functional; conditions: Homo sapiens
DU-145 [16] = assay: In vitro cytotoxic activity against prostate (DU145) cell line; format: functional; conditions: Homo sapiens

| Structure (SMILES) | Growth (NCI-H522 [1]) [%] | Growth (M14 [2]) [%] | Growth (MCF7 [3]) [%] | Growth (A498 [4]) [%] | Growth (SW-620 [5]) [%] | Growth (SK-OV-3 [6]) [%] | Growth (DU-145 [7]) [%] | Growth (U-251 [8]) [%] | GI50 (SW-620 [9]) [µM] | GI50 (M14 [10]) [µM] | GI50 (A498 [11]) [µM] | GI50 (U-251 [12]) [µM] | GI50 (NCI-H522 [13]) [µM] | GI50 (MCF7 [14]) [µM] | GI50 (SK-OV-3 [15]) [µM] | GI50 (DU-145 [16]) [µM] |
| --- | --- | --- | --- | --- | --- | --- | --- | --- | --- | --- | --- | --- | --- | --- | --- | --- |
| CCOC1=C[C@@]2(C)C(C[C@@H](O)[C@@]3(C)C4=CC[C@@H](c5ccoc5)[C@]4(C)CCC23)C(C)(C)C1=O (stereo partly specified) | 57 | 67 | 17 | 52 | 36 | 67 | 84 | 54 | – | – | – | – | – | – | – | – |
| CCCC(=O)O[C@@H]1CC2C(C)(C)C(=O)C=C[C@]2(C)C2CC[C@]3(C)C(=CC[C@H]3c3ccoc3)[C@@]21C (stereo partly specified) | 40 | 59 | 57 | 43 | 49 | 90 | 68 | 15 | – | – | – | – | – | – | – | – |
| CCO[C@@H]1CC2C(C)(C)C(=O)C=C[C@]2(C)C2CC[C@]3(C)C(=CC[C@H]3c3ccoc3)[C@@]21C (stereo partly specified) | 69 | 61 | 66 | 45 | 81 | 100 | 76 | 63 | – | – | – | – | – | – | – | – |
| CC1(C)C(O)C=C[C@@]2(C)C1C[C@@H](O)[C@@]1(C)C3=CC[C@@H](c4ccoc4)[C@]3(C)CCC21 (stereo partly specified) | 97 | 100 | 76 | 88.2 | 79.6 | 100 | 100 | 100 | – | – | – | – | – | – | – | – |
| CC1(C)C(=O)C=C[C@@]2(C)C1C[C@@H](OC(=O)Nc1ccccc1)[C@@]1(C)C3=CC[C@@H](c4ccoc4)[C@]3(C)CCC21 (stereo partly specified) | 51 | 74 | 55 | 100 | 64 | 100 | 76 | 71 | – | – | – | – | – | – | – | – |
| CC1(C)C(=O)C=C[C@@]2(C)C1C[C@@H](OC(=O)C(F)(F)F)[C@@]1(C)C3=CC[C@@H](c4ccoc4)[C@]3(C)CCC21 (stereo partly specified) | 75 | 86 | 54 | 59 | 60 | 49 | 77 | 52 | – | – | – | – | – | – | – | – |
| CCOC1=C[C@@]2(C)C(C[C@@H](OC(C)=O)[C@@]3(C)C4=CC[C@@H](c5ccoc5)[C@]4(C)CCC23)C(C)(C)C1=O (stereo partly specified) | 52 | 40 | 51 | 33 | 65 | 61 | 35 | 70 | 5 | 20 | 40 | 5 | 30 | 8 | 40 | 50 |
| CCN(CC)CCO/N=C1\C=C[C@@]2(C)C(C[C@@H](OC(C)=O)[C@@]3(C)C4=CC[C@@H](c5ccoc5)[C@]4(C)CCC23)C1(C)C (stereo partly specified) | 26 | 35 | 28 | 7 | 23 | 7 | 46 | 5 | 4 | 4 | 8 | 4 | 3 | 6 | 3 | 7 |
| CC(=O)O[C@@H]1CC2C(C)(C)C(=O)[C@@H]3O[C@@H]3[C@]2(C)C2CC[C@]3(C)C(=CC[C@H]3c3ccoc3)[C@@]21C (stereo partly specified) | 69.6 | 100 | 59.3 | 42.7 | 100 | 100 | 63.1 | 100 | – | – | – | – | – | – | – | – |
| CC(=O)O[C@@H]1CC2C(C)(C)C(=O)C=C[C@]2(C)C2CC[C@]3(C)C(=CC[C@H]3C3=CC(=O)OC3O)[C@@]21C.CC(=O)O[C@@H]1CC2C(C)(C)C(=O)C=C[C@]2(C)C2CC[C@]3(C)C(=CC[C@H]3C3=CC(O)OC3=O)[C@@]21C (stereo partly specified) | 73.3 | 71.3 | -13 | 70.3 | 100 | 41.6 | 24.8 | 44.3 | – | – | – | – | – | – | – | – |
| CC(C)C(=O)O[C@@H]1CC2C(C)(C)C(=O)C=C[C@]2(C)C2CC[C@]3(C)C(=CC[C@H]3c3ccoc3)[C@@]21C (stereo partly specified) | 54 | 95 | 57 | 74 | 61 | 84 | 69 | 40 | – | – | – | – | – | – | – | – |
| COc1ccc(/C=C\C(=O)O[C@@H]2CC3C(C)(C)C(=O)C=C[C@]3(C)C3CC[C@]4(C)C(=CC[C@H]4c4ccoc4)[C@@]32C)cc1OC (stereo partly specified) | 63 | 39 | 66 | 5 | 62 | 85 | 25 | 77 | – | – | – | – | – | – | – | – |
| CC(=O)O[C@@H]1CC2C(C)(C)/C(=N/O)C=C[C@]2(C)C2CC[C@]3(C)C(=CC[C@H]3c3ccoc3)[C@@]21C (stereo partly specified) | 44 | 38 | 55 | 20 | 47 | 87 | 56 | 5 | – | – | – | – | – | – | – | – |
| CC(=O)OC1C=C[C@@]2(C)C(C[C@@H](OC(C)=O)[C@@]3(C)C4=CC[C@@H](c5ccoc5)[C@]4(C)CCC23)C1(C)C (stereo partly specified) | 86 | 76 | 78 | 69 | 59 | 19.3 | 74 | 46 | – | – | – | – | – | – | – | – |
| CC1(C)C(=O)C=C[C@@]2(C)C1C[C@@H](O)[C@@]1(C)C3=CC[C@@H](c4ccoc4)[C@]3(C)CCC21 (stereo partly specified) | 100 | 15.8 | 36 | 65 | 100 | 64 | 46 | 46 | > 100 | 9 | > 100 | 3.5 | > 100 | 5 | > 100 | 9.5 |
| COC1=C[C@@]2(C)C(C[C@@H](OC(C)=O)[C@@]3(C)C4=CC[C@@H](c5ccoc5)[C@]4(C)CCC23)C(C)(C)C1=O (stereo partly specified) | 82 | 67 | 58 | 50 | 35 | 38 | 47 | 63 | 20 | 40 | 40 | 20 | 40 | 95 | 35 | 40 |
| CCC(=O)O[C@@H]1CC2C(C)(C)C(=O)C=C[C@]2(C)C2CC[C@]3(C)C(=CC[C@H]3c3ccoc3)[C@@]21C (stereo partly specified) | 48 | 39 | 29 | 67 | 51 | 61 | 67 | 40 | – | – | – | – | – | – | – | – |
| CC1(C)C(=O)C=C[C@@]2(C)C1C[C@@H](OC(=O)/C=C\c1ccccc1)[C@@]1(C)C3=CC[C@@H](c4ccoc4)[C@]3(C)CCC21 (stereo partly specified) | 69 | 41 | 55 | 48 | 86 | 86 | 81 | 41 | – | – | – | – | – | – | – | – |
